Assay results from patent US20140128472A1, “TREATMENT AND PREVENTION OF DISEASES RELATED TO OXIDATIVE STRESS” (UNIVERSITY OF PÉCS, priority 2011, published 2014).
“Also recorded” adds a separate entry of the source.

Tests used:
Akt (PKB) = test: Erythropoietin-dependent phosphorylation of Akt (PKB) in 3T3-L1 adipocytes (Western blot); format: cell-based, mouse; conditions: 25 mM glucose; various concentrations of erythropoietin
[1] = Body weight of rats during four-week tyrosine isomer supplementation; format: in vivo, Sprague-Dawley rats; conditions: four weeks, 1.76 mg/die, vs vehicle
Description: (§1) In further tyrosine isomer incorporation studies when effects of chronic oral p-Tyr and o-Tyr supplementation of rats on the o-Tyr level and insulin-induced relaxation of isolated arterial segments were studied, 18 Male Sprague-Dawley rats (5-6 week-old) were used. Rats were orally supplied with either 1.76 mg/die of p-Tyr or o-Tyr or vehicle during six days per week for four weeks. […] At the end of four-week treatment, HPLC and vasomotor studies were performed. In another group of rats, p-Tyr/o-Tyr supplementation was discontinued for four weeks (“washout” period), after which they were sacrificed for HPLC and vasomotor studies.

3T3-L1 adipocytes = test: Erythropoietin-dependent uptake of deoxy-D-glucose into 3T3-L1 adipocytes; format: cell-based, mouse; conditions: 5 mM glucose; various concentrations of EPO
Description: Primary cultures of mouse embryo fibroblasts (3T3-L1) were purchased from ATCC (Manassas, US). Early passages of 3T3-L1 fibroblasts were cultured in Dulbecco's modified Eagle medium ((DMEM, Invitrogen, CAT number: 41966-029; Sigma Aldrich CAT number: D6046) supplemented with 10% Fetal Bovine Serum (Gibco, CAT number: 16170-078), 100 U/ml penicillin and 0.1 mg/ml streptomycin (Gibco, CAT number: 15070-063) and 398 nM p-, m-, or o-Tyr. DMEM contained 25 or 5 mM glucose (depending on the experiment), L-glutamine, and pyruvate. Cells were grown in a humidified incubator at 37° C. and 5% CO2. Differentiation medium consisted of DMEM supplemented with 10% Fetal Bovine Serum (FBS, Gibco, Csertex, Budapest, Hungary, CAT number: 10106-169) (FBS), to which a cocktail was added containing […] isobuthylmethylxanthine (Sigma Aldrich, CAT number: I 5879), 0.17 nM insulin (Sigma Aldrich, CAT number: I 9278) and 250 nM dexamethasone (Sigma Aldrich, CAT number: 861871). […]
[…] The sediment was dissolved in 70 μl of lysis-buffer and glucose uptake was assessed by scintillation counting measuring 30 μl of the sample with a Beckman LS 5000 TD counter in counts per minute (CPM) for five minutes each, using an average activity as the outcome. Samples were frozen overnight at −70° C. and protein concentration was measured using a Hitachi spectrophotometer. […]

[2] = tested on: thoracic and abdominal aorta, renal and femoral arteries; test: Insulin-induced relaxation of isolated arterial segments after oral tyrosine isomer supplementation of rats; format: in vivo, Sprague-Dawley rats; conditions: for Insulin-induced relaxation, abdominal aorta, femoral (and renal) arteries / Insulin-induced relaxation, thoracic aorta: 1.76 mg/die per os; for Insulin-induced relaxation, abdominal aorta, femoral (and renal) arteries: compared to control; for Insulin-induced relaxation, thoracic aorta: compared to control/other groups; for Chronic effects on insulin-induced vasorelaxation after washout: 8th week, 4 weeks washout, all segments
Description: The experiments were carried out with the permission of the Hungarian Local Animal Experiment Committee. Shortly after weaning male CFY rats (a strain of the Sprague-Dawley rat) were placed in individual cages and held on regular diet. After two hours of fasting animals (4-5 week-old, 80-140 g) were loaded with 1.76 mg/die para-, meta- or ortho-tyrosine (p-, m-, o-tyr; Sigma-Aldrich, Inc., St. Louis, Mo. 63178, USA) dissolved in saline or vehicle (saline only) by gavage (per os) six days of the week. After one month treatment, animals were either anaesthetized with ether and were decapitated with a guillotine or p-, m-, o-tyr and vehicle supplementation was discontinued (“washout” period) and they were sacrificed […] (FIG. 8.A). The descending thoracic and abdominal aorta, renal and femoral arteries were removed and cleaned from connective tissue (FIG. 19). Sections were immediately hydrolyzed for HPLC analysis or were used for vascular reactivity studies.
as §1
The modified method of Fésüs et al. (Fésüs2007) was used. The distal parts of the vessels were dissected into 2 mm long segments in ice-cold Krebs buffer and rings were mounted on two stainless steel wires (40 μm in diameter) in a Danish Multimyograph Model 610M (DMT-USA Inc., Atlanta, Ga., USA). Vessels were bathed in Krebs buffer (containing 119 mM NaCl, 4.7 mM KCl, 1.2 mM KH2PO4, 25 mM NaHCO3, 1.2 mM Mg2SO4, 11.1 mM glucose, 1.6 mM CaCl2*2H2O, pH 7.4) and gassed with 5% CO2 and 95% O2 at 37° C. The resting tension/internal circumference relationship for each vessel was determined and then the internal circumference was set to 0.9×L100, where L100 is the internal circumference the vessel would have had in vivo when relaxed under a transmural pressure of 100 mmHg After this normalization procedure vessels were allowed to stabilize for 30 min, and then isometric tension was continuously recorded. Rings were preconstricted with 100 nM epinephrine. After reaching a stabile contraction plateau, relaxant responses to increasing doses of insulin were assessed. The rate of relaxation was expressed as percentage of the contraction evoked by epinephrine (100%). Para-, meta-, ortho-tyrosine or vehicle were added to the vessel chamber 10 minutes before the addition of epinephrine and 30 minutes before the addition of insulin.

[3] = Example p-Tyr treatment regimen in a patient (hsCRP, serum insulin, plasma glucose); format: in vivo, human
Description: As a further example, a patient attends medical control with a complaint of high blood pressure and increased stress at regular daily work in the last month. In this situation they relate an increased intake of coffein and sugar. Their high sensitivity C-reactive protein (hsCRP) level is measured as well as their serum insulin, and plasma glucose level.

[4] = tested on: thoracic and abdominal aorta, renal and femoral arteries; test: Insulin-induced relaxation of isolated arterial segments after oral tyrosine isomer supplementation of rats; set-up: species or system Sprague-Dawley rats; conditions: proposed experiment: sustained in vivo supplementation with o-Tyr and p-Tyr together

| SMILES | EPO-dependent Akt phosphorylation (Akt (PKB)) | Body weight [1] | EPO-induced glucose uptake compared to the para-Tyr control (3T3-L1 adipocytes) | Insulin-induced relaxation, abdominal aorta, femoral (and renal) arteries ([2]; 4th week) | Insulin-induced relaxation, thoracic aorta ([2]; 4th week) | Insulin-induced relaxation, all three isolated segments compared to the p-Tyr-treated group ([2]; 4th week, thoracic and abdominal aorta, femoral artery) | Chronic effects on insulin-induced vasorelaxation after washout [2] | hsCRP, serum insulin and plasma glucose level ([3]; p-Tyr 3 g daily (three times 1 g), after a month) | hsCRP, serum insulin and plasma glucose level ([3]; p-Tyr therapy continued, after a further month) | Diminished response to insulin in isolated arterial segments [4] |
| --- | --- | --- | --- | --- | --- | --- | --- | --- | --- | --- |
| N[C@@H](Cc1ccccc1O)C(=O)O [o-Tyr, Ortho-L-tyrosine] | inhibited the normal increase in the Akt phosphorylation | no difference between the groups | inhibited | significantly diminished response to insulin | no significant difference; also recorded: did not observe any significant further decline of response to insulin | markedly attenuated insulin-induced relaxations | completely abolished | – | – | – |
| N[C@@H](Cc1ccc(O)cc1)C(=O)O [p-Tyr, Para-L-tyrosine] | – | no difference between the groups | – | could not detect significant difference | increased insulin-induced relaxations only in the thoracic aorta; also recorded: increased relaxation in response to insulin; also recorded: higher vasorelaxation response to insulin; also recorded: greater vasorelaxation | – | completely abolished | somewhat diminished | returned to the medium normal range | reversed |
